Format in all cases: cell-based, human
Series [1] relates to αCTF (APP carboxy-terminal fragment). Briefly: αCTF level by Western blotting in SY5Y-APP^WT cells. The conditions noted are these: Homo sapiens; concentration increasing αCTF 20-fold vs untreated control; SY5Y-APP^WT cells; read-out: αCTF (C20). As for the experimental part:
(§1) The final and selected intermediate compounds were evaluated for their ability to modulate APP processing in the SH-SY5Y human neuroblastoma cell line stably expressing the neuronal isoform of human wild-type APP^695 (SY5Y-APP^WT), a well-established model for the study of APP metabolism. APP carboxy-terminal fragments (αCTFs and AICD) levels were assessed by Western blotting (WB). The effect of the reference and test compounds on αCTFs and AICD is expressed as the intensity of corresponding WB bands. The concentration of compounds able to increase 20-times αCTFs and AICD (C20) when compared to the control condition was calculated. Selected compounds were also evaluated for their ability to modulate the secretion of soluble APP fragments (sAPPα and sAPPβ). Aβ1–x levels (Aβ1–40 and Aβ1–42) after treatment with the reference and tested compounds were measured in the cell media by ELISA (Table 1). […] Selected hit compounds were then further evaluated for their ability to decrease the level of N-truncated Aβ peptides (Aβx–38, Aβx–40, and Aβx–42).
(§2) The human neuroblastoma cell line SY5Y-APP^695WT was maintained in Dulbecco’s modified Eagle medium (DMEM, high glucose, pyruvate—GIBCO, Life Technologies, Carlsbad, CA, USA) supplemented with 10% fetal bovine serum, 2 mM L-glutamine, 1 mM non-essential amino acids and penicillin/streptomycin (GIBCO, Life Technologies, Carlsbad, CA, USA) at 37 °C in a 5% CO2 humidified incubator [36]. For compound treatment, a 10 mM stock solution was diluted in freshly supplemented DMEM medium to obtain the precise final concentration of the drug. Cells were plated at a density of 5 × 10^5 cells per well into 12-well plates and cultured with 1 mL supplemented DMEM cell medium for 24 h before compound exposure. The following day, the cell medium was replaced with fresh medium containing the compounds diluted at the indicated concentrations. Cells were treated for 24 h. At the end of the treatments, the cell medium was collected and kept at −80 °C until use, cells were rinsed once with PBS and extracted in 100 µL of Laemmli buffer (10 mM Tris, 20% glycerol, and 2% sodium dodecyl sulfate) using a cell-scraper. The cell lysate was further sonicated (30 pulses of 0.5 s, 60 Hz) for 5 min. Total protein concentration was determined using the Pierce BCA Protein Assay Kit (Thermo Scientific, Waltham, MA, USA) according to the manufacturer’s instructions. Samples were stored at −80 °C until analysis.
(§3) Cell protein lysates were prepared for Western blot analysis by diluting the sample with 1 volume of NuPAGE® lithium dodecyl sulfate (LDS) 2X sample buffer supplemented with 20% NuPAGE® sample reducing agents (Invitrogen). Samples were heated for 10 min at 100 °C. Ten µg of total proteins per well were loaded onto precast 4–12% Criterion XT Bis-Tris polyacrylamide gels (Bio-Rad) and electrophoresis was achieved after applying a tension of 150 V for 90 min using a Criterion electrophoresis cell with the NuPAGE® MOPS SDS running buffer (1X). Proteins were transferred to a nitrocellulose membrane of […] pore size (G&E Healthcare, Madison, WI, USA) using the Criterion blotting system and applying a tension of 100 V for 45 min. To resolve proteins of low molecular weights such as carboxy-terminal fragments of APP, 12% Criterion XT Bis-Tris polyacrylamide gels (Bio-Rad, Hercules, CA, USA) were used, and electrophoresis was performed for 70 min at 150 V in a NuPAGE® MES SDS running buffer (1X). Proteins were transferred to a nitrocellulose membrane of 0.2 µm pore size (G&E Healthcare, Madison, WI, USA) at 100 V for 40 min. Molecular weight calibration was achieved using molecular weight markers (Novex and Magic Marks, Life Technologies, Carlsbad, CA, USA). Protein transfer and quality were determined by a reversible Ponceau Red coloration (0.2% xylidine Ponceau Red and 3% trichloroacetic acid). […]
(Immunoblotting shows a protein as a band on a membrane.)

Series [2] deals with AICD (APP intracellular domain). Nature of the series: AICD level by Western blotting in SY5Y-APP^WT cells. The conditions noted are these: Homo sapiens, concentration increasing AICD 20-fold vs untreated control, read-out: AICD (C20). The procedure: as §1, §2, §3
A short description of series [3]: in vitro. To be noted: human. The procedure:
Cytotoxicity was measured using 3-(4,5-dimethylthiazol-2-yl)-5-(3-carboxymethoxyphenyl)-2-(4-sulfophenyl)-2H-tetrazolium (MTS) tests. SY5Y-APP^695WT cells were plated in a 96-well plate at 3 × 10^4 cells per well and allowed to attach for 24 h. Cells were then incubated for 72 h with 100 µL of DMEM with 10% SVF containing (or not) the defined concentration of drugs. Cytotoxicity was determined by using the colorimetric MTS assay (Cell Titer 96® Aqueous One Solution Cell Proliferation Assay-MTS Promega, Madison, WI, USA) according to the manufacturer’s instructions. Absorbance was read at 490 nm.

For series [4], the system named is Aβ1–40 peptide secretion. Briefly: Aβ1–40 secretion in cell medium by ELISA. The conditions noted are these: Homo sapiens; SY5Y-APP^WT cells, 24 h treatment; mean ± SD of at least three experiments in triplicate; read-out: Aβ1–40 IC50. As for the experimental part:
as §1, §2
(§4) Conditioned media of SY5Y-APP^695WT collected at the end of treatments were centrifuged at 1000× g for 5 min to eliminate cell debris.
(§5) Aβ1–40/Aβ1–42 peptides, Aβx–38/Aβx–40/Aβx–42, and sAPPα/sAPPβ concentrations in pg/mL were determined, respectively, using amyloid-beta 40 and 42 Human ELISA Kits (Invitrogen), the V-PLEX Plus Aβ Peptide Panel 1 (4G8) Kit (Meso Scale Diagnostics, MSD R©, Rockville, MD, USA), and the sAPPα/sAPPβ Multiplex Kit (Meso Scale Diagnostics, MSD R©, Rockville, MD, USA) according to the manufacturer’s instructions.
Background: In an ELISA, binding on a coated surface is turned into a signal by an enzyme label.

Series [5] has as its system Aβ1–42 peptide secretion. Nature of the series: Aβ1–42 secretion in cell medium by ELISA. To be noted: Homo sapiens; SY5Y-APP^WT cells, 24 h treatment; mean ± SD of at least three experiments in triplicate. The procedure: as §1, §2, §4, §5

By CC50 is commonly meant the concentration at which the toxic effect on the cells reaches its halfway point. The term IC50 denotes the concentration that gives 50% inhibition. For the compound `CN(C)CCCc1ccc(-c2nn(-c3cccc(CN4CCN(C)CC4)c3)cc2CN(C)C)cc1` [Compound 30, 3-[4-[4-(Dimethylaminomethyl)-1-[3-[(4-methylpiperazin-1-yl)methyl] Phenyl]pyrazol-3-yl]phenyl]-N,N-dimethyl-propan-1-amine], the EC (20-fold increase) was determined as 1.2 µM in series [1] and 1.6 µM in series [2]. In addition, in series [3], the CC50 at 72 h is over 100 µM. For the same compound, the results for the 50% inhibitory concentration (IC50) in series [4] and in series [5] were 2.2 ± 0.3 µM and 3.8 ± 0.1 µM, respectively.
The corresponding values for `CN(C)CCCc1ccc(-c2nn(-c3cccc(CN(C)C)c3)cc2CCCN(C)C)cc1` [Compound 27, 3-[4-[1-[3-(Dimethylaminomethyl)phenyl]-4-[3-(dimethylamino)propyl] Pyrazol-3-yl]phenyl]-N,N-dimethyl-propan-1-amine] are 1.3 µM, 1.6 µM, over 100 µM, 2.6 ± 0.1 µM and 3.8 ± 0.4 µM.
With `CN(C)CCCc1ccc(-c2nn(-c3ccc(CO)cc3)cc2CCCN(C)C)cc1` [Compound 17, [4-[4-[3-(Dimethylamino)propyl]-3-[4-[3-(dimethylamino)propyl]phenyl] Pyrazol-1-yl]phenyl]methanol], the EC (20-fold increase) in series [1] was 2 µM; in series [2], 3.6 µM. Besides, in series [3], the 50% cytotoxic concentration (CC50) at 72 h was 34 µM. Further, the IC50 was 4.8 ± 1.2 µM in series [4] and 5.4 ± 2.4 µM in series [5].
For `CN(C)CCCc1ccc(-c2nn(-c3cccc(CN(C)C)c3)cc2CN(C)C)cc1` [Compound 26, 3-[4-[4-(Dimethylaminomethyl)-1-[3-(dimethylaminomethyl)phenyl] Pyrazol-3-yl]phenyl]-N,N-dimethyl-propan-1-amine], in that order: 1.3 µM, 1.8 µM, over 100 µM, 1.6 ± 0.1 µM and 2.4 ± 0.7 µM.
As to `Cc1cn(-c2cccc(CN(C)CCCN(C)C)c2)nc1-c1cccc(CN(C)CCCN(C)C)c1` [Compound 72, N′-[[3-[1-[3-[[3-(Dimethylamino)propyl-methyl-amino]methyl]phenyl]-4-methyl-pyrazol-3-yl]phenyl]methyl]-N,N,N′-trimethyl-propane-1,3-diamine], the EC (20-fold increase) in series [1] came to 0.6 µM; in series [2] it was 0.8 µM. In series [3], this compound showed a CC50 at 72 h of 26 µM. The IC50 in series [4] is 2.6 ± 0.2 µM; in series [5] it was 3.3 ± 0.1 µM.
`Cc1cn(-c2cccc(CN(C)C)c2)nc1-c1ccc(CN(C)C)cc1` [Compound 61, {[4-(1-{3-[(Dimethylamino)methyl]phenyl}-4-methyl-1H-pyrazol-3-yl)phenyl]methyl}dimethylamine]: the EC (20-fold increase) in series [1] and in series [2] was 2.7 µM each time. The same compound yielded a CC50 at 72 h in series [3] of 27 µM. For the same compound, the IC50 in series [4] was 3.9 ± 0.3 µM; in series [5] it was 4.1 ± 2.1 µM.
With `Cc1cn(-c2cccc(CN3CCN(C)CC3)c2)nc1-c1ccc(CN(C)CCCN(C)C)cc1` [Compound 68, [3-(Dimethylamino)propyl](methyl){[4-(4-methyl-1-{3-[(4-methylpiperazin-1-yl)methyl]phenyl}-1H-pyrazol-3-yl)phenyl]methyl}amine], the EC (20-fold increase) in series [1] and in series [2] was 1 µM throughout. Moreover, in series [3], the CC50 at 72 h was determined as 6 µM. For the same compound, the figures for the IC50 in series [4] and in series [5] were 1.2 ± 0.1 µM and 1.6 ± 0.1 µM, respectively.
As for `CN(C)CCCc1ccc(-c2nn(-c3ccc(CN4CCN(C)CC4)cc3)cc2CCCN(C)C)cc1` [Compound 29, 3-[4-[4-[3-(Dimethylamino)propyl]-1-[4-[(4-methylpiperazin-1-yl) Methyl]phenyl]pyrazol-3-yl]phenyl]-N,N-dimethyl-propan-1-amine], the values for the EC (20-fold increase) in series [1] and in series [2] were 1 µM and 2 µM, respectively. The CC50 at 72 h in series [3] is over 100 µM. Also, the values for the IC50 in series [4] and in series [5] were 3.4 ± 0.1 µM and 5 ± 0.1 µM, respectively.
Regarding `Cc1cn(-c2cccc(CN3CCN(C)CC3)c2)nc1-c1ccc(CN(C)C)cc1` [Compound 62, Dimethyl({[4-(4-methyl-1-{3-[(4-methylpiperazin-1-yl)methyl]phenyl}-1H-pyrazol-3-yl)phenyl]methyl})amine], the EC (20-fold increase) in series [1] amounted to 2 µM; in series [2] it was 3.5 µM. In addition, the CC50 at 72 h in series [3] amounted to 11 µM. Besides, the half-inhibitory concentration (IC50) amounted to 2.4 ± 0.2 µM in series [4] and 3.2 ± 0.8 µM in series [5].
For `Cc1cn(-c2cccc(CN(C)CCCN(C)C)c2)nc1-c1cccc(CN(C)C)c1` [Compound 66, N′-[[3-[3-[3-(Dimethylaminomethyl)phenyl]-4-methyl-pyrazol-1-yl]phenyl]methyl]-N,N,N’-trimethyl-propane-1,3-diamine], in that order: 2.2 µM, 2.4 µM, 47 µM, 2.2 ± 0.3 µM and 2.5 ± 1 µM.
The corresponding values for `Cc1cn(-c2cccc(CO)c2)nc1-c1cccc(CN(C)CCCN(C)C)c1` [Compound 58, [3-[3-[3-[[3-(Dimethylamino)propyl-methyl-amino]methyl]phenyl]-4-methyl-pyrazol-1-yl]phenyl]methanol] are over 10 µM, 7.9 µM, 20 µM, 3.3 ± 1.3 µM and 3.5 ± 0.7 µM.
The corresponding values for `Cc1cn(-c2cccc(CN(C)CCCN(C)C)c2)nc1-c1ccc(CN(C)C)cc1` [Compound 63, [(4-{1-[3-({[3-(Dimethylamino)propyl](methyl)amino}methyl)phenyl]-4-methyl-1H-pyrazol-3-yl}phenyl)methyl]dimethylamine] are 1.2 µM, 1.5 µM, 13 µM, 2 ± 0.2 µM and 2.7 ± 0.2 µM.
For `Cc1cn(-c2cccc(CO)c2)nc1-c1ccc(CN(C)C)cc1` [Compound 48, [3-[3-[4-(Dimethylaminomethyl)phenyl]-4-methyl-pyrazol-1-yl]phenyl] Methanol], the midpoint of cytotoxicity in series [3], the CC50 at 72 h, lay at 24 µM. The IC50 in series [4] and in series [5] was over 10 µM in each case.
